Assay type in all cases: cell-based
For assay [1], the system named is E. coli JT39. The assay is described as follows: MIC by standard microtitre technique (dilution in tryptone soy broth), E. coli JT39. Conditions: Escherichia coli, alone. The protocol:
(§1) By a standard microtitre technique the MIC values for ampicillin alone, ampicillin and 9-N-(2'-cyanoethyl)aminodeoxyclavulanic acid and 9-N-(2'-cyanoethyl)aminodeoxyclavulanic acid alone were determined.
(§2) MIC μg/ml (dilution in tryptone soy broth)

Assay [2] concerns Strep. Pneumoniae. The assay is described as follows: Antibacterial activity, MIC, Strep. Pneumoniae. Conditions: Streptococcus pneumoniae. The text has this: (§3) Antibacterial activity of 9-N-(2'-cyanoethyl)aminodeoxyclavulanic acid, MIC μg/ml.
The subject of assay [3] is Strep. Pyogenes. The assay is described as follows: Antibacterial activity, MIC, Strep. Pyogenes. Conditions: Streptococcus pyogenes.
Excerpt: as §3

The subject of assay [4] is Kleb. aerogenes E70. Description: MIC by standard microtitre technique (dilution in tryptone soy broth), Kleb. aerogenes E70. Conditions: Klebsiella aerogenes, alone.
The test system of assay [5] is Staph. aureus Russell. The assay is described as follows: MIC by standard microtitre technique (dilution in tryptone soy broth), Staph. aureus Russell. Particulars: Staphylococcus aureus, alone. The protocol:
as §1, §2

In assay [6] the test system is Staph. aureus Russell. The assay is described as follows: Antibacterial activity, MIC, Staph. aureus Russell. Particulars: Staphylococcus aureus.
Excerpt: as §3

Assay [7] concerns Staph. aureus Oxford. Description: Antibacterial activity, MIC, Staph. aureus Oxford. Conditions: Staphylococcus aureus.
Excerpt: as §3

Our source for the MIC values is patent US4426389A, “Derivatives of clavulanic acid, a process for their preparation and their use” (Beecham Group Limited, priority 1979, dated 1984).

Converted amounts (≈) assume the structure as drawn.

Consider `N#CCCNC/C=C1\O[C@@H]2CC(=O)N2[C@H]1C(=O)O` [9-N-(2'-Cyanoethyl)aminodeoxyclavulanic acid], for which the MIC in assay [1] was 31 µg/mL (≈ 123 µM); in assay [2], 5 µg/mL (≈ 19.9 µM); in assay [3], 10 µg/mL (≈ 39.8 µM); in assay [4] it was 250 µg/mL (≈ 995 µM); in assay [5] it was 16 µg/mL (≈ 63.7 µM); in assay [6], 10 to 20 µg/mL (≈ 39.8 to 79.6 µM). In assay [7], this compound yielded a minimum inhibitory concentration (MIC) of 10 to 20 µg/mL (≈ 39.8 to 79.6 µM).
As to `CC1(C)S[C@@H]2[C@H](NC(=O)[C@H](N)c3ccccc3)C(=O)N2[C@H]1C(=O)O` [Ampicillin, ampicillin, reference compound], the minimal inhibitory concentration (MIC) in assay [4] and in assay [5] was 500 to 1000 µg/mL (≈ 1430 to 2860 µM) throughout.
